Test results reported in ChEMBL document CHEMBL5584294, “Adpressins A-G: Oligophenalenone Dimers from Talaromyces adpressus” (J Nat Prod, 2024).

Legend:
T-cell [1] = experiment: Immunosuppressive activity in BALB/c mouse T-lymphocytes assessed as inhibition of ConA-induced cell proliferation pretreated with Concanavalin A for 24 hrs followed by compound addition and measured after 48 hrs by CCK-8 assay; assay type: functional, cell-based
B-cell line = experiment: Immunosuppressive activity in BALB/c mouse B-lymphocytes assessed as inhibition of LPS-induced cell proliferation pretreated with LPS for 24 hrs followed by compound addition and measured after 48 hrs by CCK-8 assay; assay type: functional, cell-based
T-cell [2] = experiment: (§1) Immunosuppressive activity in ConA-induced BALB/c mouse T-lymphocytes assessed as Treg cell subsets by measuring CD25positiveFOXP3positive cells at 5 uM pretreated with Concanavalin A for 24 hrs followed by compound addition and measured after 48 hrs by flow cytometry analysis (reference value: 5.7%); assay type: functional
T-cell [3] = experiment: as §1, with “CD25negativeFOXP3negative” for “CD25positiveFOXP3positive”, “2.5” for “5”, “27.2%)” for “5.7%)”; assay type: functional
T-cell [4] = experiment: (§2) Immunosuppressive activity in BALB/c mouse T-lymphocytes assessed as reduction in ConA-induced CD4 subpopulation by measuring CD3negativeCD4positive cells at 2.5 uM pretreated with Concanavalin A for 24 hrs followed by compound addition and measured after 48 hrs by flow cytometry analysis (reference value: 0%); assay type: functional; parameters: scale not given: the % may be the effect or the level left
T-cell [5] = experiment: as §1, with “at 2.5” for “at 5”; assay type: functional
T-cell [6] = experiment: as §1, with “CD25negativeFOXP3positive” for “CD25positiveFOXP3positive”, “2.5” for “5”, “0.2%)” for “5.7%)”; assay type: functional
T-cell [7] = experiment: as §2, with “CD8” for “CD4”, “CD3negativeCD8negative” for “CD3negativeCD4positive”, “5” for “2.5”; assay type: functional; parameters: scale not given: the % may be the effect or the level left
T-cell [8] = experiment: as §2, with “CD3positiveCD4negative” for “CD3negativeCD4positive”, “12.2%)” for “0%)”; assay type: functional; parameters: scale not given: the % may be the effect or the level left
T-cell [9] = experiment: as §1, with “CD25positiveFOXP3negative” for “CD25positiveFOXP3positive”, “66.9%)” for “5.7%)”; assay type: functional
T-cell [10] = experiment: as §2, with “CD3negativeCD4negative” for “CD3negativeCD4positive”; assay type: functional; parameters: scale not given: the % may be the effect or the level left
T-cell [11] = experiment: as §2, with “CD3negativeCD4negative” for “CD3negativeCD4positive”, “5” for “2.5”; assay type: functional; parameters: scale not given: the % may be the effect or the level left
T-cell [12] = experiment: as §2, with “CD8” for “CD4”, “CD3positiveCD8positive” for “CD3negativeCD4positive”, “5” for “2.5”, “29.1%)” for “0%)”; assay type: functional; parameters: scale not given: the % may be the effect or the level left
T-cell [13] = experiment: as §2, with “CD3positiveCD4positive” for “CD3negativeCD4positive”, “5” for “2.5”, “87.8%)” for “0%)”; assay type: functional; parameters: scale not given: the % may be the effect or the level left
T-cell [14] = experiment: as §2, with “CD8” for “CD4”, “CD3negativeCD8negative” for “CD3negativeCD4positive”; assay type: functional; parameters: scale not given: the % may be the effect or the level left
T-cell [15] = experiment: as §2, with “CD8” for “CD4”, “CD3positiveCD8negative” for “CD3negativeCD4positive”, “5” for “2.5”, “70.9%)” for “0%)”; assay type: functional; parameters: scale not given: the % may be the effect or the level left
T-cell [16] = experiment: as §2, with “CD8” for “CD4”, “CD3positiveCD8positive” for “CD3negativeCD4positive”, “29.1%)” for “0%)”; assay type: functional; parameters: scale not given: the % may be the effect or the level left
T-cell [17] = experiment: as §2, with “CD3positiveCD4positive” for “CD3negativeCD4positive”, “87.8%)” for “0%)”; assay type: functional; parameters: scale not given: the % may be the effect or the level left
T-cell [18] = experiment: as §1, with “CD25negativeFOXP3positive” for “CD25positiveFOXP3positive”, “0.2%)” for “5.7%)”; assay type: functional
T-cell [19] = experiment: as §1, with “CD25positiveFOXP3negative” for “CD25positiveFOXP3positive”, “2.5” for “5”, “66.9%)” for “5.7%)”; assay type: functional
T-cell [20] = experiment: as §1, with “CD25negativeFOXP3negative” for “CD25positiveFOXP3positive”, “27.2%)” for “5.7%)”; assay type: functional
T-cell [21] = experiment: as §2, with “5” for “2.5”; assay type: functional; parameters: scale not given: the % may be the effect or the level left
T-cell [22] = experiment: as §2, with “CD8” for “CD4”, “CD3negativeCD8positive” for “CD3negativeCD4positive”; assay type: functional; parameters: scale not given: the % may be the effect or the level left
T-cell [23] = experiment: as §2, with “CD8” for “CD4”, “CD3negativeCD8positive” for “CD3negativeCD4positive”, “5” for “2.5”; assay type: functional; parameters: scale not given: the % may be the effect or the level left
T-cell [24] = experiment: as §2, with “CD8” for “CD4”, “CD3positiveCD8negative” for “CD3negativeCD4positive”, “70.9%)” for “0%)”; assay type: functional; parameters: scale not given: the % may be the effect or the level left
T-cell [25] = experiment: as §2, with “CD3positiveCD4negative” for “CD3negativeCD4positive”, “5” for “2.5”, “12.2%)” for “0%)”; assay type: functional; parameters: scale not given: the % may be the effect or the level left

For `CC(=O)O[C@H]1[C@@H]2C(=O)c3c(C)cc(O)c4c3[C@@]1(COC4=O)C1=C2c2c(C)cc(O)c3c2[C@@](O)(COC3=O)C1=O`, the IC50 (T-cell [1]) was > 40 µM and the IC50 (B-cell line) was > 40 µM.

`CC1(C)C2CCC1(CS(=O)(=O)O)C(=O)C2` (centres undefined) was tested, and the IC50 (T-cell [1]) was < 0.04 µM and the IC50 (B-cell line) was < 0.04 µM.

In the case of `Cc1cc(O)c2c3c1C(=O)[C@@H]1C4=C(C(=O)c5cn(CCO)c(=O)c6c(O)cc(C)c4c56)[C@@]3(COC2=O)[C@H]1O`, the IC50 (T-cell [1]) is reported as > 40 µM and the IC50 (B-cell line) is reported as > 40 µM.

Work on `COC(=O)CCCn1cc2c3c(c(C)cc(O)c3c1=O)C1=C(C2=O)[C@]23COC(=O)c4c(O)cc(C)c(c42)C(=O)[C@H]1[C@@H]3OC(C)=O` yielded an Activity (T-cell [2]) of 3.3%, an Activity (T-cell [3]) of 18.1% and an IC50 (T-cell [1]) of 2.6 µM. For the same compound, the Activity (T-cell [4]) was 0%, the Activity (T-cell [5]) was 3.5% and the Activity (T-cell [6]) was 0.1%. The Activity (T-cell [7]) was 0%, the Activity (T-cell [8]) was 16.8% and the IC50 (B-cell line) was 1.6 µM. For the same compound, the Activity (T-cell [9]) was 75.4%, the Activity (T-cell [10]) was 0% and the Activity (T-cell [11]) was 0%. It also gave an Activity (T-cell [12]) of 30.1%, an Activity (T-cell [13]) of 22.3% and an Activity (T-cell [14]) of 0%. The Activity (T-cell [15]) was 69.9%, the Activity (T-cell [16]) was 31.4% and the Activity (T-cell [17]) was 83.2%. For the same compound, the Activity (T-cell [18]) was 0.4%, the Activity (T-cell [19]) was 78.3% and the Activity (T-cell [20]) was 20.8%. For the same compound, the Activity (T-cell [21]) was 77.7%, the Activity (T-cell [22]) was 0% and the Activity (T-cell [23]) was 0%. For the same compound, the Activity (T-cell [24]) was 68.6% and the Activity (T-cell [25]) was 0%.

With `CC(=O)O[C@H]1[C@@H]2C(=O)c3c(C)cc(O)c4c3[C@@]1(COC4=O)c1c(O)c3c4c(c(O)cc(C)c4c12)C(=O)O3` the IC50 (T-cell [1]) was > 40 µM and the IC50 (B-cell line) was > 40 µM.

`Cc1cc(O)c2c3c1C(=O)[C@@H]1c4c(c(O)c5c6c(c(O)cc(C)c46)C(=O)OC5)[C@@]3(COC2=O)[C@H]1O` was tested, and the IC50 (T-cell [1]) was > 40 µM and the IC50 (B-cell line) was > 40 µM.

With `COC(=O)C[C@H]1OC(=O)c2c(O)cc(C)c3c2C1=C(O)C1[C@]24COC(=O)c5c(O)cc(C)c(c52)C(=O)[C@@H]([C@@H]4OC(C)=O)[C@]31OC` (some centres undefined) the IC50 (T-cell [1]) was > 40 µM and the IC50 (B-cell line) was > 40 µM.

`COC(=O)C[C@@H]1OC(=O)c2c(O)cc(C)c3c4c(c(O)c1c23)[C@]12COC(=O)c3c(O)cc(C)c(c31)C(=O)[C@H]4[C@@H]2O` was tested, and the IC50 (T-cell [1]) was > 40 µM and the IC50 (B-cell line) was > 40 µM.

`COC(=O)C[C@@H]1OC(=O)c2c(O)cc(C)c3c4c(c(O)c1c23)[C@]12COC(=O)c3c(O)cc(C)c(c31)C(=O)[C@H]4[C@@H]2OC(C)=O` showed an IC50 (T-cell [1]) of 12.8 µM and an IC50 (B-cell line) of 8.6 µM.

`COC(=O)C[C@H]1OC(=O)c2c(O)cc(C)c3c4c(c(O)c1c23)[C@]12COC(=O)c3c(O)cc(C)c(c31)C(=O)[C@H]4[C@@H]2OC(C)=O` was tested, and the IC50 (T-cell [1]) was > 40 µM and the IC50 (B-cell line) was > 40 µM.
